Holding throughout (test): SRB assay, IMT combined with inhibitor
Type in all cases: cell-based

In one test the test system is HT1080. The conditions noted are these: HT1080 (connective tissue); concentration series of the labelled inhibitor + fixed concentration of IMT (3S)-1-[(2R)-2-[4-(2-chloro-4-fluoro-phenyl)-2-oxo-chromen-7-yl]oxypropanoyl]piperidine-3-carboxylic acid (Table 3: 40 nM, 120 h); negative=synergistic, positive=antagonistic. The protocol:
(§1) Solforhodamine B assay is carried out as described in Voigt W. (2005) Sulforhodamine B Assay and Chemosensitivity. (Methods in Molecular Medicine™, vol 110. Humana Press. https://doi.org/10.1385/1-59259-869-2:039).
(§2) The determination of changes in cellular biomass was based on the Solforhodamine B assay format, carried out as described in Voigt W. (2005) Sulforhodamine B Assay and Chemosensitivity. (Methods in Molecular Medicine™, vol 110. Humana Press. https://doi.org/10.1385/1-59259-869-2:039).
(§3) All in vitro cell culture experiments were carried out under near physiological glucose concentrations (5 mM) in at least two independent replicates.
(§4) First, 30 different cell lines from 14 different tissue types were tested in the SRB assay format. The cells were examined individually for changes in growth over a period of 120 hours with dilution series of both inhibitors. Untreated cells were used as a negative control group. Subsequently, a dilution series of the respective MAPK signalling pathway SOCs was treated in combination with a fixed concentration of 40 nM (3S)-1-[(2R)-2-[4-(2-chloro-4-fluoro-phenyl)-2-oxo-chromen-7-yl]oxypropanoyl]piperidine-3-carboxylic acid.

Another test relates to A375. The conditions noted are these: A375 (skin); concentration series of the labelled inhibitor + fixed concentration of IMT (3S)-1-[(2R)-2-[4-(2-chloro-4-fluoro-phenyl)-2-oxo-chromen-7-yl]oxypropanoyl]piperidine-3-carboxylic acid (Table 3: 40 nM, 120 h); negative=synergistic, positive=antagonistic. The protocol: as §1, §2, §3, §4
Another test relates to SKMEL5. The note with it: SKMEL5 (skin); concentration series of the labelled inhibitor + fixed concentration of IMT (3S)-1-[(2R)-2-[4-(2-chloro-4-fluoro-phenyl)-2-oxo-chromen-7-yl]oxypropanoyl]piperidine-3-carboxylic acid (Table 3: 40 nM, 120 h); negative=synergistic, positive=antagonistic. The protocol: as §1, §2, §3, §4
The test system of another test is CALU6. The note with it: CALU6 (lung); concentration series of the labelled inhibitor + fixed concentration of IMT (3S)-1-[(2R)-2-[4-(2-chloro-4-fluoro-phenyl)-2-oxo-chromen-7-yl]oxypropanoyl]piperidine-3-carboxylic acid (Table 3: 40 nM, 120 h); negative=synergistic, positive=antagonistic. The protocol: as §1, §2, §3, §4
A further test concerns KASUMI-1. The note with it: KASUMI-1 (hematological); concentration series of the labelled inhibitor + fixed concentration of IMT (3S)-1-[(2R)-2-[4-(2-chloro-4-fluoro-phenyl)-2-oxo-chromen-7-yl]oxypropanoyl]piperidine-3-carboxylic acid (Table 3: 40 nM, 120 h); negative=synergistic, positive=antagonistic. The method, then:
as §1, §2, §3, §4

The next test has as its system HEPG2. The conditions noted are these: HEPG2 (liver); concentration series of the labelled inhibitor + fixed concentration of IMT (3S)-1-[(2R)-2-[4-(2-chloro-4-fluoro-phenyl)-2-oxo-chromen-7-yl]oxypropanoyl]piperidine-3-carboxylic acid (Table 3: 40 nM, 120 h); negative=synergistic, positive=antagonistic. The protocol: as §1, §2, §3, §4
The test system of the next test is U87MG. The conditions noted are these: U87MG (brain); concentration series of the labelled inhibitor + fixed concentration of IMT (3S)-1-[(2R)-2-[4-(2-chloro-4-fluoro-phenyl)-2-oxo-chromen-7-yl]oxypropanoyl]piperidine-3-carboxylic acid (Table 3: 40 nM, 120 h); negative=synergistic, positive=antagonistic. The method, then: as §1, §2, §3, §4
In a further test the test system is NCIH460. The note with it: NCIH460 (lung); concentration series of the labelled inhibitor + fixed concentration of IMT (3S)-1-[(2R)-2-[4-(2-chloro-4-fluoro-phenyl)-2-oxo-chromen-7-yl]oxypropanoyl]piperidine-3-carboxylic acid (Table 3: 40 nM, 120 h); negative=synergistic, positive=antagonistic. The method, then:
as §1, §2, §3, §4

The subject of a further test is MV4-11. The conditions noted are these: MV4-11 (hematological); concentration series of the labelled inhibitor + fixed concentration of IMT (3S)-1-[(2R)-2-[4-(2-chloro-4-fluoro-phenyl)-2-oxo-chromen-7-yl]oxypropanoyl]piperidine-3-carboxylic acid (Table 3: 40 nM, 120 h); negative=synergistic, positive=antagonistic. The protocol:
as §1, §2, §3, §4

In the next test the test system is HCT116. The conditions noted are these: HCT116 (colon); concentration series of the labelled inhibitor + fixed concentration of IMT (3S)-1-[(2R)-2-[4-(2-chloro-4-fluoro-phenyl)-2-oxo-chromen-7-yl]oxypropanoyl]piperidine-3-carboxylic acid (Table 3: 40 nM, 120 h); negative=synergistic, positive=antagonistic. The protocol: as §1, §2, §3, §4
The subject of another test is MHHES1. The conditions noted are these: MHHES1 (bone); concentration series of the labelled inhibitor + fixed concentration of IMT (3S)-1-[(2R)-2-[4-(2-chloro-4-fluoro-phenyl)-2-oxo-chromen-7-yl]oxypropanoyl]piperidine-3-carboxylic acid (Table 3: 40 nM, 120 h); negative=synergistic, positive=antagonistic. The protocol:
as §1, §2, §3, §4

In another test the test system is HELA. The note with it: HELA (cervix); concentration series of the labelled inhibitor + fixed concentration of IMT (3S)-1-[(2R)-2-[4-(2-chloro-4-fluoro-phenyl)-2-oxo-chromen-7-yl]oxypropanoyl]piperidine-3-carboxylic acid (Table 3: 40 nM, 120 h); negative=synergistic, positive=antagonistic. The protocol:
as §1, §2, §3, §4

A further test relates to JAR. The conditions noted are these: JAR (placenta); concentration series of the labelled inhibitor + fixed concentration of IMT (3S)-1-[(2R)-2-[4-(2-chloro-4-fluoro-phenyl)-2-oxo-chromen-7-yl]oxypropanoyl]piperidine-3-carboxylic acid (Table 3: 40 nM, 120 h); negative=synergistic, positive=antagonistic. The method, then: as §1, §2, §3, §4
A further test concerns DU145. The note with it: DU145 (prostate); concentration series of the labelled inhibitor + fixed concentration of IMT (3S)-1-[(2R)-2-[4-(2-chloro-4-fluoro-phenyl)-2-oxo-chromen-7-yl]oxypropanoyl]piperidine-3-carboxylic acid (Table 3: 40 nM, 120 h); negative=synergistic, positive=antagonistic. The method, then: as §1, §2, §3, §4
For a further test, the system named is U2OS. The conditions noted are these: U2OS (bone); concentration series of the labelled inhibitor + fixed concentration of IMT (3S)-1-[(2R)-2-[4-(2-chloro-4-fluoro-phenyl)-2-oxo-chromen-7-yl]oxypropanoyl]piperidine-3-carboxylic acid (Table 3: 40 nM, 120 h); negative=synergistic, positive=antagonistic. The protocol:
as §1, §2, §3, §4

The values that follow come from patent US20240252454A1, “COMPOSITION COMPRISING AN INHIBITOR OF MITOCHONDRIAL TRANSCRIPTION” (LEAD DISCOVERY CENTER GMBH, priority 2021, published 2024).

`Cc1cc(C(=O)NOCCO)c(Nc2ccc(I)cc2F)n(C)c1=O` [AZD8330, 2-((2-Fluoro-4-iodophenyl)amino)-N-(2-hydroxyethoxy)-1,5-dimethyl-6-oxo-1,6-dihydropyridine-3-carboxamide]: the “difference between the calculated combinatorial index (BLISS) and the observed combinatorial effect” value was 0.0197 in the test on HT1080; 0.0451 in the test with A375; 0.0135 in the test on SKMEL5; −0.0116 with CALU6; −0.0326 with KASUMI-1; 0.0270 in the test on HEPG2. Further, the “difference between the calculated combinatorial index (BLISS) and the observed combinatorial effect” value in the test on U87MG is on record as 0.0579; with NCIH460 it was 0.0015; in the test on MV4-11, 0.0680; with HCT116, −0.0196; in the test on MHHES1, 0.0682; in the test with HELA, 0.0000. Further, the “difference between the calculated combinatorial index (BLISS) and the observed combinatorial effect” value in the test on JAR was 0.0124; in the test on DU145 it was 0.0201; in the test on U2OS, −0.0171.
In the case of `O=C(c1ccc(F)c(F)c1Nc1ccc(I)cc1F)N1CC(O)([C@@H]2CCCCN2)C1` [Cobimetinib], the “difference between the calculated combinatorial index (BLISS) and the observed combinatorial effect” value in the test on HT1080 is on record as −0.0482; in the test with A375, 0.0443; in the test with SKMEL5 it was −0.0872; with CALU6, 0.0286; in the test on KASUMI-1 it was −0.0232; in the test on HEPG2, −0.0133. Besides, the “difference between the calculated combinatorial index (BLISS) and the observed combinatorial effect” value in the test with U87MG is 0.0347; with NCIH460 it was −0.0338; in the test with MV4-11 it was 0.0051; in the test on HCT116, −0.0279; with MHHES1, −0.0055; with HELA, −0.0068. Further, the “difference between the calculated combinatorial index (BLISS) and the observed combinatorial effect” value in the test on JAR is reported as 0.0139; with DU145, 0.0164; in the test on U2OS it was −0.0663.
On to `CC(C)(C)c1nc(-c2cccc(NS(=O)(=O)c3c(F)cccc3F)c2F)c(-c2ccnc(N)n2)s1` [Dabrafenib], for which the “difference between the calculated combinatorial index (BLISS) and the observed combinatorial effect” value in the test with HT1080 is reported as −0.1475; in the test on A375, 0.0337; in the test on SKMEL5, −0.0987; with CALU6, −0.0342; with KASUMI-1, −0.0274; with HEPG2 it was −0.1427. Moreover, the “difference between the calculated combinatorial index (BLISS) and the observed combinatorial effect” value in the test with U87MG is recorded as 0.0044; with NCIH460, −0.0275; in the test on MV4-11, 0.0205; in the test on HCT116 it was 0.0411; in the test with MHHES1, −0.0230; in the test with HELA, −0.0022. In addition, the “difference between the calculated combinatorial index (BLISS) and the observed combinatorial effect” value with JAR is 0.0431; with DU145, −0.0114; in the test with U2OS, −0.0418.
Consider `O=C(NOC[C@H](O)CO)c1ccc(F)c(F)c1Nc1ccc(I)cc1F` [PD 0325901, (R)—N-(2,3-dihydroxypropoxy)-3,4-difluoro-2-((2-fluoro-4-iodophenyl)amino)benzamide], for which the “difference between the calculated combinatorial index (BLISS) and the observed combinatorial effect” value in the test on HT1080 was 0.0433; with A375, 0.0418; with SKMEL5 it was 0.0095; with CALU6, 0.0809; in the test on KASUMI-1, −0.0286; in the test on HEPG2, 0.0334. The “difference between the calculated combinatorial index (BLISS) and the observed combinatorial effect” value with U87MG is 0.0604; with NCIH460, 0.0200; in the test with MV4-11 it was 0.0637; with HCT116, −0.0042; with MHHES1, 0.0437; in the test with HELA it was −0.2549. Further, the “difference between the calculated combinatorial index (BLISS) and the observed combinatorial effect” value was 0.0256 in the test on JAR, −0.0558 in the test with DU145 and 0.0014 with U2OS.
